System: plants
Assay: Test D pre-emergence, other plants of Tables D1 and D3
Type: in vivo
Details: preemergent, 20 DAA
Description: A formulation containing 50 g/L of the test chemical was prepared by dissolving the active ingredient in a mixture of organic solvents and emulsifier, details of which are provided in the table. This formulation was then mixed with a small, variable amount of acetone to aid dissolution, before addition of a 0.2% v/v aqueous solution of an adjuvant, as the aqueous diluent, to form an aqueous spray solution which contains a predetermined concentration of the active ingredient.
This aqueous spray solution was then sprayed onto plants including maize and wheat that had been seed treated with a herbicide safener, after one day's cultivation (for pre-emergence) or after about 12 days' cultivation (for post-emergence). The plants were grown from seeds sown in standard soil, placed in a glasshouse under controlled conditions (at 24/18° C. or 20/16° C., day/night; 16 h light; 65% humidity). After spray application the plants were then grown in a glasshouse under the same conditions and watered twice daily. After 15 d for post-emergence and 20 DAA for pre-emergence the test was evaluated (100=total damage to plant; 0=no damage to plant).

## COc1c(F)cccc1NC(=O)C1C(=O)N(C)CC1c1cc(C(F)(F)F)n(C)n1 (racemic) [Compound 18]
Rate 15
  damage to plant (100=total damage to plant; 0=no damage to plant), ABUTH: 0
  damage to plant (100=total damage to plant; 0=no damage to plant), AMARE: 0
  damage to plant (100=total damage to plant; 0=no damage to plant), BIDPI: 0
  damage to plant (100=total damage to plant; 0=no damage to plant), BRAPL: 10
  damage to plant (100=total damage to plant; 0=no damage to plant), CYPES: 0
  damage to plant (100=total damage to plant; 0=no damage to plant), DIGSA: 0
  damage to plant (100=total damage to plant; 0=no damage to plant), ECHCG: 0
  damage to plant (100=total damage to plant; 0=no damage to plant), ELEIN: 0
  damage to plant (100=total damage to plant; 0=no damage to plant), EPHHL: 0
  damage to plant (100=total damage to plant; 0=no damage to plant), GLXMA: 0
  damage to plant (100=total damage to plant; 0=no damage to plant), IPOHE: 0
  damage to plant (100=total damage to plant; 0=no damage to plant), ORYSA: 0
  damage to plant (100=total damage to plant; 0=no damage to plant), PANMI: 0
  damage to plant (100=total damage to plant; 0=no damage to plant), SETFA: 0
  damage to plant (100=total damage to plant; 0=no damage to plant), SORVU: 0
Rate 30
  damage to plant (100=total damage to plant; 0=no damage to plant), ABUTH: 0
  damage to plant (100=total damage to plant; 0=no damage to plant), AMARE: 0
  damage to plant (100=total damage to plant; 0=no damage to plant), BIDPI: 0
  damage to plant (100=total damage to plant; 0=no damage to plant), BRAPL: 60
  damage to plant (100=total damage to plant; 0=no damage to plant), CYPES: 0
  damage to plant (100=total damage to plant; 0=no damage to plant), DIGSA: 80
  damage to plant (100=total damage to plant; 0=no damage to plant), ECHCG: 30
  damage to plant (100=total damage to plant; 0=no damage to plant), ELEIN: 0
  damage to plant (100=total damage to plant; 0=no damage to plant), EPHHL: 0
  damage to plant (100=total damage to plant; 0=no damage to plant), GLXMA: 0
  damage to plant (100=total damage to plant; 0=no damage to plant), IPOHE: 0
  damage to plant (100=total damage to plant; 0=no damage to plant), ORYSA: 0
  damage to plant (100=total damage to plant; 0=no damage to plant), PANMI: 0
  damage to plant (100=total damage to plant; 0=no damage to plant), SETFA: 0
  damage to plant (100=total damage to plant; 0=no damage to plant), SORVU: 0
Rate 60
  damage to plant (100=total damage to plant; 0=no damage to plant), ABUTH: 0
  damage to plant (100=total damage to plant; 0=no damage to plant), AMARE: 0
  damage to plant (100=total damage to plant; 0=no damage to plant), BIDPI: 0
  damage to plant (100=total damage to plant; 0=no damage to plant), BRAPL: 70
  damage to plant (100=total damage to plant; 0=no damage to plant), CYPES: 0
  damage to plant (100=total damage to plant; 0=no damage to plant), DIGSA: 90
  damage to plant (100=total damage to plant; 0=no damage to plant), ECHCG: 70
  damage to plant (100=total damage to plant; 0=no damage to plant), ELEIN: 0
  damage to plant (100=total damage to plant; 0=no damage to plant), EPHHL: 0
  damage to plant (100=total damage to plant; 0=no damage to plant), GLXMA: 0
  damage to plant (100=total damage to plant; 0=no damage to plant), IPOHE: 0
  damage to plant (100=total damage to plant; 0=no damage to plant), ORYSA: 0
  damage to plant (100=total damage to plant; 0=no damage to plant), PANMI: 0
  damage to plant (100=total damage to plant; 0=no damage to plant), SETFA: 80
  damage to plant (100=total damage to plant; 0=no damage to plant), SORVU: 0
Rate 130
  damage to plant (100=total damage to plant; 0=no damage to plant), ABUTH: 0
  damage to plant (100=total damage to plant; 0=no damage to plant), AMARE: 0
  damage to plant (100=total damage to plant; 0=no damage to plant), BIDPI: 0
  damage to plant (100=total damage to plant; 0=no damage to plant), BRAPL: 80
  damage to plant (100=total damage to plant; 0=no damage to plant), CYPES: 0
  damage to plant (100=total damage to plant; 0=no damage to plant), DIGSA: 90
  damage to plant (100=total damage to plant; 0=no damage to plant), ECHCG: 90
  damage to plant (100=total damage to plant; 0=no damage to plant), ELEIN: 0
  damage to plant (100=total damage to plant; 0=no damage to plant), EPHHL: 0
  damage to plant (100=total damage to plant; 0=no damage to plant), GLXMA: 0
  damage to plant (100=total damage to plant; 0=no damage to plant), IPOHE: 0
  damage to plant (100=total damage to plant; 0=no damage to plant), ORYSA: 0
  damage to plant (100=total damage to plant; 0=no damage to plant), PANMI: 0
  damage to plant (100=total damage to plant; 0=no damage to plant), SETFA: 90
  damage to plant (100=total damage to plant; 0=no damage to plant), SORVU: 0
Rate 250
  damage to plant (100=total damage to plant; 0=no damage to plant), ABUTH: 10
  damage to plant (100=total damage to plant; 0=no damage to plant), AMARE: 0
  damage to plant (100=total damage to plant; 0=no damage to plant), BIDPI: 0
  damage to plant (100=total damage to plant; 0=no damage to plant), BRAPL: 80
  damage to plant (100=total damage to plant; 0=no damage to plant), CYPES: 0
  damage to plant (100=total damage to plant; 0=no damage to plant), DIGSA: 90
  damage to plant (100=total damage to plant; 0=no damage to plant), ECHCG: 90
  damage to plant (100=total damage to plant; 0=no damage to plant), ELEIN: 0
  damage to plant (100=total damage to plant; 0=no damage to plant), EPHHL: 10
  damage to plant (100=total damage to plant; 0=no damage to plant), GLXMA: 0
  damage to plant (100=total damage to plant; 0=no damage to plant), IPOHE: 0
  damage to plant (100=total damage to plant; 0=no damage to plant), ORYSA: 0
  damage to plant (100=total damage to plant; 0=no damage to plant), PANMI: 0
  damage to plant (100=total damage to plant; 0=no damage to plant), SETFA: 90
  damage to plant (100=total damage to plant; 0=no damage to plant), SORVU: 0
Rate 500
  damage to plant (100=total damage to plant; 0=no damage to plant), ABUTH: 30
  damage to plant (100=total damage to plant; 0=no damage to plant), AMARE: 0
  damage to plant (100=total damage to plant; 0=no damage to plant), BIDPI: 0
  damage to plant (100=total damage to plant; 0=no damage to plant), BRAPL: 90
  damage to plant (100=total damage to plant; 0=no damage to plant), CYPES: 0
  damage to plant (100=total damage to plant; 0=no damage to plant), DIGSA: 100
  damage to plant (100=total damage to plant; 0=no damage to plant), ECHCG: 90
  damage to plant (100=total damage to plant; 0=no damage to plant), ELEIN: 0
  damage to plant (100=total damage to plant; 0=no damage to plant), EPHHL: 20
  damage to plant (100=total damage to plant; 0=no damage to plant), GLXMA: 0
  damage to plant (100=total damage to plant; 0=no damage to plant), IPOHE: 0
  damage to plant (100=total damage to plant; 0=no damage to plant), ORYSA: 0
  damage to plant (100=total damage to plant; 0=no damage to plant), PANMI: 0
  damage to plant (100=total damage to plant; 0=no damage to plant), SETFA: 90
  damage to plant (100=total damage to plant; 0=no damage to plant), SORVU: 10

Reference: US20220281848A1, “PYRAZOLE-SUBSTITUTED PYRROLIDINONES AS HERBICIDES” (FMC Corporation, priority 2019, published 2022)
